In ChEMBL document CHEMBL4507276 (2021):

How the values were obtained:
[1] = target: Sigma non-opioid intracellular receptor 1 (Homo sapiens) (UniProt Q99720); details: Compound concentration 10.0 uM
[2] = target: Tyrosine-protein kinase Lck (Homo sapiens) (UniProt P06239); test: LCK Invitrogen selectivity data (BI); details: Compound concentration 3.0 uM
[3] = target: T1, Muscle, skeletal receptor tyrosine-protein kinase (Homo sapiens) (UniProt O15146); test: MUSK Invitrogen selectivity data (BI); details: Compound concentration 3.0 uM
T1 sequence (whole entry): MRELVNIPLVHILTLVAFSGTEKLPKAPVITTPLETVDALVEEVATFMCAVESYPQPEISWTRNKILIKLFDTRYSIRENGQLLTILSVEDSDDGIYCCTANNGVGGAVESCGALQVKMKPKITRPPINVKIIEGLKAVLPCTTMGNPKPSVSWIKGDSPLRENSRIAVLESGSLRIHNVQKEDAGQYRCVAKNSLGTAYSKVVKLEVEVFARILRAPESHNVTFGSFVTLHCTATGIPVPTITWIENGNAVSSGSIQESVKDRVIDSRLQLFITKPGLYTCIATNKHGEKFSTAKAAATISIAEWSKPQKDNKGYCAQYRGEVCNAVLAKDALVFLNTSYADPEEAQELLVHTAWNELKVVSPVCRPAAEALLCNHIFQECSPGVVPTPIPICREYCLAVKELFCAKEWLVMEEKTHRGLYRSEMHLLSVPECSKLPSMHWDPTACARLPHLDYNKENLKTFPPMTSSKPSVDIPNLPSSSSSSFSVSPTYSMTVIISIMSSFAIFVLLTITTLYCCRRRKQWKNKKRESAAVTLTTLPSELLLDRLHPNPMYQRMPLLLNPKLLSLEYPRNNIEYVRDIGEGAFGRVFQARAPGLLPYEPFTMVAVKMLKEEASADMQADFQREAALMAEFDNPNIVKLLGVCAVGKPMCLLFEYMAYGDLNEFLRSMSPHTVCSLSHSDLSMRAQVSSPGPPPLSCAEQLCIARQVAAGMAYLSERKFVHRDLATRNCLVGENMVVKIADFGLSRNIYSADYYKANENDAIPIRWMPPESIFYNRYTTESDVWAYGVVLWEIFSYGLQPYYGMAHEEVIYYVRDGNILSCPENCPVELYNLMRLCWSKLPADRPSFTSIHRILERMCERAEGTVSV

[4] = target: T2, Activin receptor type-1B (Homo sapiens) (UniProt P36896); test: ACVR1B Invitrogen selectivity data (BI); details: Compound concentration 3.0 uM
T2 sequence (whole entry): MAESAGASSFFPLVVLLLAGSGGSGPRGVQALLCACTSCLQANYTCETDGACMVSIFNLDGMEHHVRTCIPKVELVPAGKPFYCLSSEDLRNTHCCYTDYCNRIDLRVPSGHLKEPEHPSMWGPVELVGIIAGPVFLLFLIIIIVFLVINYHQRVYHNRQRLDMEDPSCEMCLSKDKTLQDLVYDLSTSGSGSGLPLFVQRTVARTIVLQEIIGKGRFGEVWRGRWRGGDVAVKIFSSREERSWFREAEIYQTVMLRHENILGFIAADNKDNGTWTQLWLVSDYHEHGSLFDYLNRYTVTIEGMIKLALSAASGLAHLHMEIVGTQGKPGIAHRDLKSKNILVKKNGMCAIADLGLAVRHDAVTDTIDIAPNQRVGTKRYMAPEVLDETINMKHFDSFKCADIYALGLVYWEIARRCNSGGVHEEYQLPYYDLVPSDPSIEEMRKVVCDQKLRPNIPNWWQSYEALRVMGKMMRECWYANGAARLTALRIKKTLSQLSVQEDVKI

[5] = target: LIM domain kinase 2 (Homo sapiens) (UniProt P53671); test: LIMK2 Invitrogen selectivity data (BI); details: Compound concentration 3.0 uM
LIM domain kinase 2 (Homo sapiens), sequence (P53671 whole entry, looked up, the tested form may be a part): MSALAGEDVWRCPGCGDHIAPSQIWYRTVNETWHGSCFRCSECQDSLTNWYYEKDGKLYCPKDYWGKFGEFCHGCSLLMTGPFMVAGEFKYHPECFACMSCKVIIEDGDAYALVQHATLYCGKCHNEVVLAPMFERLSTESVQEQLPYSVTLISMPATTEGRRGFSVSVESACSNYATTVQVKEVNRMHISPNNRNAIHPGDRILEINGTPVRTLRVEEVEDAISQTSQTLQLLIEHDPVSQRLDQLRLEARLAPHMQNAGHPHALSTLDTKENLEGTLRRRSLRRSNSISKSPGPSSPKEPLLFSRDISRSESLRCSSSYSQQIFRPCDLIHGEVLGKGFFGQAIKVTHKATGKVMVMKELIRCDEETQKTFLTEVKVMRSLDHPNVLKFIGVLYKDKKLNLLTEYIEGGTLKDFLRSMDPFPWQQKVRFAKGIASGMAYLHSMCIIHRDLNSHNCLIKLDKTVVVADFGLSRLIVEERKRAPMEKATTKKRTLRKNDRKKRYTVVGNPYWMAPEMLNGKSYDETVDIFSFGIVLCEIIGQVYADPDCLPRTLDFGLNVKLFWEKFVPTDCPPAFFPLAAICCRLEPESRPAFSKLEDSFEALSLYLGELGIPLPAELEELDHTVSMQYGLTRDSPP

[6] = target: Oxysterols receptor LXR-beta (Homo sapiens) (UniProt P55055); test: LXR_BETAH_AGON Cerep selectivity data (BI); details: filed as agonist, Compound concentration 20.0 uM
Oxysterols receptor LXR-beta (Homo sapiens), sequence (P55055 whole entry): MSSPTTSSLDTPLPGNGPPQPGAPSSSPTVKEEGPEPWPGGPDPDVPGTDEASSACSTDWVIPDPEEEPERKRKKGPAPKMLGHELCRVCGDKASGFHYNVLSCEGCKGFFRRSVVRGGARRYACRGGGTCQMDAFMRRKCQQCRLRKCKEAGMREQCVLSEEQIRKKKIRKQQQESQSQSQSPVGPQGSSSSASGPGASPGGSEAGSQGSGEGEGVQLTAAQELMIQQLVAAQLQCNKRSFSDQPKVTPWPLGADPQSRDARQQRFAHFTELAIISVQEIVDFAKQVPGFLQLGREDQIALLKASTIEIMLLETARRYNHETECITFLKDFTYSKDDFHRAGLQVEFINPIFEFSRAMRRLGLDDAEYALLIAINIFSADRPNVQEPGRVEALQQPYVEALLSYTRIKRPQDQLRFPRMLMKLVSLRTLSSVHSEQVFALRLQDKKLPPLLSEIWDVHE

[7] = target: P2X purinoceptor (Oryctolagus cuniculus) (UniProt G1U3D6); test: P2X/RB Eurofins-Panlabs selectivity data (BI); details: Compound concentration 10.0 uM
P2X purinoceptor (Oryctolagus cuniculus), sequence (G1U3D6 as listed by the source): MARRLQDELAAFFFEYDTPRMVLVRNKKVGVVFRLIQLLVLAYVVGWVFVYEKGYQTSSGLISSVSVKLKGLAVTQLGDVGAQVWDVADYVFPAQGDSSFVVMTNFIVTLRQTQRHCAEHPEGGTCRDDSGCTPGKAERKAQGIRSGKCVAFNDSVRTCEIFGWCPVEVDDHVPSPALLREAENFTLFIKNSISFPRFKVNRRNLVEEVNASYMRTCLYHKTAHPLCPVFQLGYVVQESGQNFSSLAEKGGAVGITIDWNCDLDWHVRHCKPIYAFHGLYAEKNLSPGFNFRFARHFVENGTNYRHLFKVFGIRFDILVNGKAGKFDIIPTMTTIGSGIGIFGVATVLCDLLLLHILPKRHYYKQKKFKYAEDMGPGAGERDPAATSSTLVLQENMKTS

[8] = target: Rod cGMP-specific 3',5'-cyclic phosphodiesterase subunit alpha (Bos taurus) (UniProt P11541); test: PDE6_CE Cerep selectivity data (BI); details: Compound concentration 20.0 uM
[9] = target: T3, Interleukin-1 receptor-associated kinase 4 (Homo sapiens) (UniProt Q9NWZ3); test: IRAK4 Invitrogen selectivity data (BI); details: Compound concentration 3.0 uM
T3 sequence (whole entry): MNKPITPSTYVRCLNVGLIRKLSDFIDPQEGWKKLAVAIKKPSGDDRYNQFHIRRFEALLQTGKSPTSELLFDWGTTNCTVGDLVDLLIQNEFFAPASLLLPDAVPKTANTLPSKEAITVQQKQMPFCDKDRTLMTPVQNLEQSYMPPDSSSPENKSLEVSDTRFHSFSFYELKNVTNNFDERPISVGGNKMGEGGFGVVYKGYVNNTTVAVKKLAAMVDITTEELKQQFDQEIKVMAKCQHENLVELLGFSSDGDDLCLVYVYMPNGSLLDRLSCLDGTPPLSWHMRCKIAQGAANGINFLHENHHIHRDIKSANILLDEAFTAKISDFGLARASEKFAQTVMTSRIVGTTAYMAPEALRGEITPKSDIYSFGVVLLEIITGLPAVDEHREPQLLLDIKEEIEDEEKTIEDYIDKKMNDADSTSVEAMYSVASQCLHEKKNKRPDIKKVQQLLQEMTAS

[10] = target: Macrophage colony-stimulating factor 1 receptor (Homo sapiens) (UniProt P07333); test: CSF1R Invitrogen selectivity data (BI); details: Compound concentration 3.0 uM
Macrophage colony-stimulating factor 1 receptor (Homo sapiens), sequence (P07333 whole entry): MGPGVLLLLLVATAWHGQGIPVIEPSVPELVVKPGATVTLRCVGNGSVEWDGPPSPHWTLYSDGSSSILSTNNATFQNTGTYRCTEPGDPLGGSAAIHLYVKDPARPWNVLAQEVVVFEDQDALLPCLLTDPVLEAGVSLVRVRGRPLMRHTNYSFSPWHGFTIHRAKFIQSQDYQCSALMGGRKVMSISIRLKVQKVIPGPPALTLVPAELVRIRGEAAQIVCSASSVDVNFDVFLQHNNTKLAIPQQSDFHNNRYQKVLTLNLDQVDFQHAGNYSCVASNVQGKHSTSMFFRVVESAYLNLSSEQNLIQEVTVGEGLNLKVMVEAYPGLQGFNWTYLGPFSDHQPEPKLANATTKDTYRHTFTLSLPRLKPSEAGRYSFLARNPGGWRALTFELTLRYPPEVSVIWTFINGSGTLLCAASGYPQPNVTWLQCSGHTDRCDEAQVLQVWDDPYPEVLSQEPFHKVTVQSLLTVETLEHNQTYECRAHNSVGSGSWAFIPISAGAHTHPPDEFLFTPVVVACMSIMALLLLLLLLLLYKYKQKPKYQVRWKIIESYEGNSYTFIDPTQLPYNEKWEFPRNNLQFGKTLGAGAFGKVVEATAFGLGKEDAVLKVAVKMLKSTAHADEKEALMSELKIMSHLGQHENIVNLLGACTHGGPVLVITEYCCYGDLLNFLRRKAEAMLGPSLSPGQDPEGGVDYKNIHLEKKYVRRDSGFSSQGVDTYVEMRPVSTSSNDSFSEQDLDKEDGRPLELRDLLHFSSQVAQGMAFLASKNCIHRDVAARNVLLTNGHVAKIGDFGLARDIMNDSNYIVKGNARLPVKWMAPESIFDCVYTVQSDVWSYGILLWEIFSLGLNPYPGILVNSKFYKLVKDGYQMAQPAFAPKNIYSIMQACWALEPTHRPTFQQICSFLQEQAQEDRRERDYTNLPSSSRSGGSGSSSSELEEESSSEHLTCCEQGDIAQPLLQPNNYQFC

[11] = target: Mu-type opioid receptor (Homo sapiens) (UniProt P35372); test: MU/H Cerep selectivity data (BI); details: Compound concentration 20.0 uM
Mu-type opioid receptor (Homo sapiens), sequence (P35372 whole entry): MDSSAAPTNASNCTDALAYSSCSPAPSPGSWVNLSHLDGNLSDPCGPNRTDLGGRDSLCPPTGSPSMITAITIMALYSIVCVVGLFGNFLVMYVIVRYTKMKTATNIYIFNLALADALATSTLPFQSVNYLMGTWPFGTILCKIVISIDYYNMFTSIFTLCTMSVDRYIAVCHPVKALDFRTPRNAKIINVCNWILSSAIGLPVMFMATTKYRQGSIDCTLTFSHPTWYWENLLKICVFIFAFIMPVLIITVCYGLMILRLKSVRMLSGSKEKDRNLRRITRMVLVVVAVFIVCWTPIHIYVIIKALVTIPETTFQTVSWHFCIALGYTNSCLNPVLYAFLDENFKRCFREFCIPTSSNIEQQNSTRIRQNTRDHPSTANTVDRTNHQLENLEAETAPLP

[12] = target: Phosphatidylinositol 3-kinase catalytic subunit type 3 (Homo sapiens) (UniProt Q8NEB9); test: PIK3C3 Invitrogen selectivity data (BI); details: Compound concentration 3.0 uM
[13] = target: Tyrosine-protein kinase ABL2 (Homo sapiens) (UniProt P42684); test: ABL2 Invitrogen selectivity data (BI); details: Compound concentration 3.0 uM
Tyrosine-protein kinase ABL2 (Homo sapiens), sequence (P42684 whole entry, the tested form may be a part): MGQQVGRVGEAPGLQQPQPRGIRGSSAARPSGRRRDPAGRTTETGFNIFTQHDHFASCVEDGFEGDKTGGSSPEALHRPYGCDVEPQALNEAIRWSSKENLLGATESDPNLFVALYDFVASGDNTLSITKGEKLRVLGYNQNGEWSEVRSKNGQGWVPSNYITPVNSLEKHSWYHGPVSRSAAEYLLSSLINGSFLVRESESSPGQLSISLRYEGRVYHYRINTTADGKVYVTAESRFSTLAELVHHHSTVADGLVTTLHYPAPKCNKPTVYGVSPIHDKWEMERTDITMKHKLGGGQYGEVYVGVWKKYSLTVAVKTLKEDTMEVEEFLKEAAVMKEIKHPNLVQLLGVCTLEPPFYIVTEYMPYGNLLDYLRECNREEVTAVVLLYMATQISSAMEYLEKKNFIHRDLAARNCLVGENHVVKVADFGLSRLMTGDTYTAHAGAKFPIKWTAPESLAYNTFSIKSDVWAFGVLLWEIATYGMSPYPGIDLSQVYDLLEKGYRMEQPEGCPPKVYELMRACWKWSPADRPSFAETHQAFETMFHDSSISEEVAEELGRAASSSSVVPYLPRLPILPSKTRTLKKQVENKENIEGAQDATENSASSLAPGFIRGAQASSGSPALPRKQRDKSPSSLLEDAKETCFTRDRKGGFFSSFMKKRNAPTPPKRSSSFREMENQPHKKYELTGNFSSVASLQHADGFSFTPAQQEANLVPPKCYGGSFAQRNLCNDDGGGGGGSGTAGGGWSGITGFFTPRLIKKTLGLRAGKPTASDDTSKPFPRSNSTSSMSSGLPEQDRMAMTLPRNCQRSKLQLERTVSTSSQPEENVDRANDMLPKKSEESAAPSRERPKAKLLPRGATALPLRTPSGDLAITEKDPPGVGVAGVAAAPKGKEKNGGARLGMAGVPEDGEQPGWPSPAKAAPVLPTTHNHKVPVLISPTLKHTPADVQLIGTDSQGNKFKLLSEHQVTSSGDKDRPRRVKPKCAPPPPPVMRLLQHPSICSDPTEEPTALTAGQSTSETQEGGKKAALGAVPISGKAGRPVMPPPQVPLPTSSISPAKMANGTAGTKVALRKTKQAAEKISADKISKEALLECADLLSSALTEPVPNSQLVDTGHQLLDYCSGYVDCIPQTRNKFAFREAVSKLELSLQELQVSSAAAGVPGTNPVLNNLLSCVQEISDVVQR

[14] = target: Epithelial discoidin domain-containing receptor 1 (Homo sapiens) (UniProt Q08345); test: DDR1 Invitrogen selectivity data (BI); details: Compound concentration 3.0 uM

Sigma non-opioid intracellular receptor 1 (Homo sapiens), sequence (Q99720 whole entry): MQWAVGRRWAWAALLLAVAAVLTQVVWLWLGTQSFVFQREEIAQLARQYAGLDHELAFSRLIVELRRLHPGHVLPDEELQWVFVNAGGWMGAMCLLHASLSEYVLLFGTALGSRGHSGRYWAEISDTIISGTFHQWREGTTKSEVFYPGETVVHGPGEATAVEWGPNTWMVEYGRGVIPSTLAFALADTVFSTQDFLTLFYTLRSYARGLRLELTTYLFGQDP
Tyrosine-protein kinase Lck (Homo sapiens), sequence (P06239 2-509 limits assumed): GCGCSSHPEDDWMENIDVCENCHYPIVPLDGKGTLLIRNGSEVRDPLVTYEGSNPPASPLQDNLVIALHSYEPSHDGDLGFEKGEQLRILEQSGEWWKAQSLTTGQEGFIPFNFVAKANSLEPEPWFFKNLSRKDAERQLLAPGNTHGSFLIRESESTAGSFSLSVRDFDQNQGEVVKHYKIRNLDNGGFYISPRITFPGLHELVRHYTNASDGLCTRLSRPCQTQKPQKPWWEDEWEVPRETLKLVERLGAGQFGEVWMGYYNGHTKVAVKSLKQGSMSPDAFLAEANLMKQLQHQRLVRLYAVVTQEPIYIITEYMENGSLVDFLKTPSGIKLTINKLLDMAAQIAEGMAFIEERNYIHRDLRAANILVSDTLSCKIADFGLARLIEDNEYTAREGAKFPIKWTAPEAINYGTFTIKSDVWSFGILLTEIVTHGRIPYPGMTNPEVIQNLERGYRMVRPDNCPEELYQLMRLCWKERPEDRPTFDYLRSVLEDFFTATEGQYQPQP

CN(C)C(=O)Cn1cc(-c2nc(C3(c4ccc(-c5cnc(N)nc5)cc4)CC3)no2)cn1 [BI 0153]
inactive: inhibition [1] -4.19%

CN(C)C(=O)Cn1cc(-c2nc([C@@](C)(c3ccc(-c4cnc(N)nc4)cc3)C3CC3)no2)cn1 [BI 665915]
inactive: residual activity [2] 91.5% | residual activity [3] 97.5% | residual activity [4] 104% | residual activity [5] 89% | residual activity [6] 118% | residual activity [7] 111% | residual activity [8] 101% | residual activity [9] 102% | residual activity [10] 73% | residual activity [11] 103% | residual activity [12] 94.5% | residual activity [13] 79.5% | residual activity [14] 99%
